Ends that are not written are not given here.
Legend:
[1] = Plasma and brain levels in male CD-1 mice after a single IP dose; type: in vivo, CD-1 mouse; details: for Tissue Homogenate Conc / Plasma Conc: male CD-1 mice, IP 10 mg/kg single
TLR2 = details: read-out: KD for binding to TLR2; ref 1 (Li et al); cited from earlier work
[2] = male, CD-1, mouse, brain homogenate, ip, 10 mg/kg
[3] = male, CD-1, mouse, brain, ip, 10 mg/kg
[4] = male, CD-1, mouse, plasma, ip, 10 mg/kg

With “RKDVY [TP5, thymopentin, reference compound] [listing 1 of 2 here]” the “Tissue Homogenate Conc” value ([1]; brain homogenate, 0.5 h, animal 2) was 2.17 ng/mL, the “Tissue Homogenate Conc” value ([1]; brain homogenate, 0.5 h, animal 3) was 3.18 ng/mL and the “Tissue Homogenate Conc” value ([1]; brain homogenate, 1 h, animal 1) was 1.69 ng/mL. The “Tissue Homogenate Conc” value ([1]; brain homogenate, 1 h, animal 2) was 1.78 ng/mL, the “Tissue Homogenate Conc” value ([1]; brain homogenate, 1 h, animal 3) was 2.20 ng/mL and the “Tissue Homogenate Conc” value ([1]; brain homogenate, 2 h, animal 1) was 1.64 ng/mL. The “Tissue Homogenate Conc” value ([1]; brain homogenate, 2 h, animal 2) was 1.28 ng/mL, the “Tissue Homogenate Conc” value ([1]; brain homogenate, 2 h, animal 3) was 1.22 ng/mL and the “Tissue Homogenate Conc” value ([1]; brain homogenate, 4 h, animal 1) was 1.16 ng/mL. For the same substance, the “Tissue Homogenate Conc” value ([1]; brain homogenate, 4 h, animal 2) was 1.03 ng/mL, the “Tissue Homogenate Conc” value ([1]; brain homogenate, 4 h, animal 3) was 1.08 ng/mL and the level at 0.5 h [1, 2] was 2.56 ng/mL. The level at 1 h [1, 2] was 1.89 ng/mL, the level at 2 h [1, 2] was 1.38 ng/mL and the level at 4 h [1, 2] was 1.09 ng/mL. The tissue level at time at 0.5 h [1, 3] was 10.3 ng/g, the tissue level at time at 1 h [1, 3] was 7.56 ng/g and the tissue level at time at 2 h [1, 3] was 5.52 ng/g. For the same substance, the tissue level at time at 4 h [1, 3] was 4.36 ng/g, the level at 0.5 h [1, 4] was 132 ng/mL and the level at 1 h [1, 4] was 90.9 ng/mL. The level at 2 h [1, 4] was 59.5 ng/mL, the level at 4 h [1, 4] was 49 ng/mL and the level at 8 h [1, 4] was 27.6 ng/mL. The “Plasma Conc” value ([1]; plasma, 0.5 h, animal 1, LC-MS/MS) was 144 ng/mL, the “Plasma Conc” value ([1]; plasma, 0.5 h, animal 2) was 136 ng/mL and the “Plasma Conc” value ([1]; plasma, 0.5 h, animal 3) was 115 ng/mL. For the same substance, the “Plasma Conc” value ([1]; plasma, 1 h, animal 1) was 80.1 ng/mL, the “Plasma Conc” value ([1]; plasma, 1 h, animal 2) was 107 ng/mL and the “Plasma Conc” value ([1]; plasma, 1 h, animal 3) was 85.7 ng/mL. The “Plasma Conc” value ([1]; plasma, 2 h, animal 1) was 56.5 ng/mL, the “Plasma Conc” value ([1]; plasma, 2 h, animal 2) was 67.2 ng/mL and the “Plasma Conc” value ([1]; plasma, 2 h, animal 3) was 54.8 ng/mL. The “Plasma Conc” value ([1]; plasma, 4 h, animal 1) was 53.4 ng/mL, the “Plasma Conc” value ([1]; plasma, 4 h, animal 2) was 42.2 ng/mL and the “Plasma Conc” value ([1]; plasma, 4 h, animal 3) was 51.3 ng/mL. For the same substance, the “Plasma Conc” value ([1]; plasma, 8 h, animal 1) was 28.7 ng/mL, the “Plasma Conc” value ([1]; plasma, 8 h, animal 2) was 30.6 ng/mL and the “Plasma Conc” value ([1]; plasma, 8 h, animal 3) was 23.6 ng/mL.

For “RKDVY [TP5, thymopentin, reference compound] [listing 2 of 2 here]”, the Kd (TLR2) is listed as 1570 nM.

— publication doi:10.1101/2023.04.18.537371v1 (bioRxiv, 2023)
